Assay results taken from patent US20180208622A1, “STABLE CRYSTALLINE FORM OF REGADENOSON” (SUN PHARMACEUTICAL INDUSTRIES LIMITED, priority 2015, published 2018).

Experiments:
[1] = Stability studies of crystal Form S, followed by XRPD; format: physicochemical
Method: XRD: X-ray powder diffraction analyses were carried out on a PANalytical Empyrean X-ray powder diffractometer using Cu K alpha radiation. The instrument was equipped with a line focus X-ray tube, and the voltage and amperage were set to 45 kV and 40 mA respectively. The scanning rate was set as 10 second per step and step size is set as 0.01°. The diffractometer was equipped with Pixcel^1D solid state detector and rotating sample stage. X-ray diffractometer was used to record diffractogram from 4° to 40° (2-theta).

[2] = WO2008143667A1, cited from earlier work

SMILES: CNC(=O)c1cnn(-c2nc(N)c3ncn([C@@H]4O[C@H](CO)C(O)C4O)c3n2)c1 (some centres unmarked) [Form S, adenosine, 2-[4-[(methylamino)carbonyl]-1H-pyrazol-1-yl]]
- change in XRPD under stability conditions ([1]; 25° C. and 60% relative humidity for more than 6 months (FIG. 3)): no significant change
- change in XRPD in accelerated stability studies ([1]; 40° C. and 75% relative humidity for more than 2 months (FIG. 2)): did not change significantly
- stability when stored ([1]; stored at 25° C. and 60% relative humidity for at least 6 months): stable

SMILES: CNC(=O)c1cnn(-c2nc(N)c3ncn([C@@H]4O[C@H](CO)[C@@H](O)[C@H]4O)c3n2)c1 [Form A, adenosine, 2-[4-[(methylamino)carbonyl]-1H-pyrazol-1-yl]]
- stability of the crystalline form ([2]; among Form A, Form B, Form C and amorphous product): most stable form

SMILES: CNC(=O)c1cnn(-c2nc(N)c3ncn([C@@H]4O[C@H](CO)[C@@H](O)[C@H]4O)c3n2)c1 [polymorph C, adenosine, 2-[4-[(methylamino)carbonyl]-1H-pyrazol-1-yl]]
- behaviour at elevated temperatures ([2]; elevated temperatures): desolvates to an unstable form
